Test results: the supplement of paper PMC10307832

Experiments:
Assay in all cases: relative viability (nuclei count vs DMSO), 5 days (fraction); higher = more cells survive
201T = tested on: 201T
Method in brief: (§1)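 Lung cancer cell lines in 1536-well plates got either a single drug or a fixed anchor-drug dose together with five library-drug doses (not always all listed) in √10 steps, by pin tool, on the day after seeding. Nuclei were counted after 5 days, and relative viability is the treated-to-vehicle ratio of nuclei counts. Values are medians of duplicate plates.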

BEN = tested on: BEN
Method in brief: as §1

CAL-12T = tested on: CAL-12T
Method in brief: as §1

HCC-827 = tested on: HCC-827
Method in brief: as §1

LCLC-103H = tested on: LCLC-103H
Method in brief: as §1

LCLC-97TM1 = tested on: LCLC-97TM1
Method in brief: as §1

LXF-289 = tested on: LXF-289
Method in brief: as §1

NCI-H1395 = tested on: NCI-H1395
Method in brief: as §1

NCI-H1437 = tested on: NCI-H1437
Method in brief: as §1

NCI-H1650 = tested on: NCI-H1650
Method in brief: as §1

NCI-H1792 = tested on: NCI-H1792
Method in brief: as §1

NCI-H1793 = tested on: NCI-H1793
Method in brief: as §1

NCI-H1944 = tested on: NCI-H1944
Method in brief: as §1

NCI-H2087 = tested on: NCI-H2087
Method in brief: as §1

NCI-H2228 = tested on: NCI-H2228
Method in brief: as §1

NCI-H2405 = tested on: NCI-H2405
Method in brief: as §1

NCI-H3122 = tested on: NCI-H3122
Method in brief: as §1

NCI-H322M = tested on: NCI-H322M
Method in brief: as §1

NCI-H647 = tested on: NCI-H647
Method in brief: as §1

NCI-H727 = tested on: NCI-H727
Method in brief: as §1

RERF-LC-KJ = tested on: RERF-LC-KJ
Method in brief: as §1

SK-LU-1 = tested on: SK-LU-1
Method in brief: as §1

Cc1sc2c(c1C)C(c1ccc(Cl)cc1)=N[C@@H](CC(=O)OC(C)(C)C)c1nnc(C)n1-2 [JQ1] + Cc1nc(Nc2ncc(C(=O)Nc3c(C)cccc3Cl)s2)cc(N2CCN(CCO)CC2)n1 [Dasatinib] (partner 0.075 µM)
relative viability (201T; first compound 0.04 µM): 0.606
relative viability (201T; first compound 0.1265 µM): 0.428
relative viability (201T; first compound 0.4 µM): 0.508
relative viability (201T; first compound 1.265 µM): 0.491
relative viability (201T; first compound 4 µM): 0.372
relative viability (BEN; first compound 0.04 µM): 0.302
relative viability (BEN; first compound 0.1265 µM): 0.307
relative viability (BEN; first compound 0.4 µM): 0.309
relative viability (BEN; first compound 1.265 µM): 0.274
relative viability (BEN; first compound 4 µM): 0.217
relative viability (CAL-12T; first compound 0.04 µM): 0.427
relative viability (CAL-12T; first compound 0.1265 µM): 0.332
relative viability (CAL-12T; first compound 0.4 µM): 0.228
relative viability (CAL-12T; first compound 1.265 µM): 0.144
relative viability (CAL-12T; first compound 4 µM): 0.213
relative viability (HCC-827; first compound 0.04 µM): 0.371
relative viability (HCC-827; first compound 0.4 µM): 0.227
relative viability (HCC-827; first compound 1.265 µM): 0.438
relative viability (HCC-827; first compound 4 µM): 0.421
relative viability (LCLC-103H; first compound 0.04 µM): 0.433
relative viability (LCLC-103H; first compound 0.1265 µM): 0.418
relative viability (LCLC-103H; first compound 0.4 µM): 0.464
relative viability (LCLC-103H; first compound 1.265 µM): 0.327
relative viability (LCLC-103H; first compound 4 µM): 0.266
relative viability (LCLC-97TM1; first compound 0.04 µM): 0.896
relative viability (LCLC-97TM1; first compound 0.1265 µM): 0.906
relative viability (LCLC-97TM1; first compound 0.4 µM): 0.645
relative viability (LCLC-97TM1; first compound 1.265 µM): 0.694
relative viability (LCLC-97TM1; first compound 4 µM): 0.352
relative viability (LXF-289; first compound 0.04 µM): 0.283
relative viability (LXF-289; first compound 0.1265 µM): 0.117
relative viability (LXF-289; first compound 0.4 µM): 0.212
relative viability (LXF-289; first compound 1.265 µM): 0.156
relative viability (LXF-289; first compound 4 µM): 0.152
relative viability (NCI-H1395; first compound 0.04 µM): 0.36
relative viability (NCI-H1395; first compound 0.1265 µM): 0.364
relative viability (NCI-H1395; first compound 0.4 µM): 0.362
relative viability (NCI-H1395; first compound 1.265 µM): 0.355
relative viability (NCI-H1395; first compound 4 µM): 0.388
relative viability (NCI-H1437; first compound 0.04 µM): 0.394
relative viability (NCI-H1437; first compound 0.1265 µM): 0.365
relative viability (NCI-H1437; first compound 0.4 µM): 0.263
relative viability (NCI-H1437; first compound 1.265 µM): 0.217
relative viability (NCI-H1437; first compound 4 µM): 0.244
relative viability (NCI-H1650; first compound 0.04 µM): 0.313
relative viability (NCI-H1650; first compound 0.1265 µM): 0.272
relative viability (NCI-H1650; first compound 0.4 µM): 0.201
relative viability (NCI-H1650; first compound 1.265 µM): 0.134
relative viability (NCI-H1650; first compound 4 µM): 0.143
relative viability (NCI-H1792; first compound 0.04 µM): 0.837
relative viability (NCI-H1792; first compound 0.4 µM): 0.839
relative viability (NCI-H1792; first compound 1.265 µM): 0.579
relative viability (NCI-H1792; first compound 4 µM): 0.5
relative viability (NCI-H1793; first compound 0.04 µM): 0.312
relative viability (NCI-H1793; first compound 0.1265 µM): 0.345
relative viability (NCI-H1793; first compound 0.4 µM): 0.435
relative viability (NCI-H1793; first compound 1.265 µM): 0.385
relative viability (NCI-H1793; first compound 4 µM): 0.418
relative viability (NCI-H1944; first compound 0.04 µM): 0.202
relative viability (NCI-H1944; first compound 0.1265 µM): 0.14
relative viability (NCI-H1944; first compound 0.4 µM): 0.204
relative viability (NCI-H1944; first compound 1.265 µM): 0.179
relative viability (NCI-H1944; first compound 4 µM): 0.214
relative viability (NCI-H2087; first compound 0.04 µM): 0.781
relative viability (NCI-H2087; first compound 0.1265 µM): 0.774
relative viability (NCI-H2087; first compound 0.4 µM): 0.466
relative viability (NCI-H2087; first compound 1.265 µM): 0.414
relative viability (NCI-H2087; first compound 4 µM): 0.324
relative viability (NCI-H2228; first compound 0.04 µM): 0.416
relative viability (NCI-H2228; first compound 0.1265 µM): 0.476
relative viability (NCI-H2228; first compound 0.4 µM): 0.515
relative viability (NCI-H2228; first compound 1.265 µM): 0.189
relative viability (NCI-H2228; first compound 4 µM): 0.245
relative viability (NCI-H2405; first compound 0.04 µM): 0.19
relative viability (NCI-H2405; first compound 0.1265 µM): 0.195
relative viability (NCI-H2405; first compound 0.4 µM): 0.19
relative viability (NCI-H2405; first compound 1.265 µM): 0.169
relative viability (NCI-H2405; first compound 4 µM): 0.147
relative viability (NCI-H3122; first compound 0.04 µM): 0.777
relative viability (NCI-H3122; first compound 0.1265 µM): 0.551
relative viability (NCI-H3122; first compound 0.4 µM): 0.582
relative viability (NCI-H3122; first compound 1.265 µM): 0.463
relative viability (NCI-H3122; first compound 4 µM): 0.209
relative viability (NCI-H322M; first compound 0.04 µM): 0.234
relative viability (NCI-H322M; first compound 0.1265 µM): 0.245
relative viability (NCI-H322M; first compound 0.4 µM): 0.24
relative viability (NCI-H322M; first compound 1.265 µM): 0.225
relative viability (NCI-H322M; first compound 4 µM): 0.239
relative viability (NCI-H647; first compound 0.04 µM): 0.147
relative viability (NCI-H647; first compound 0.1265 µM): 0.0904
relative viability (NCI-H647; first compound 0.4 µM): 0.124
relative viability (NCI-H647; first compound 1.265 µM): 0.045
relative viability (NCI-H647; first compound 4 µM): 0.0403
relative viability (NCI-H727; first compound 0.04 µM): 0.354
relative viability (NCI-H727; first compound 0.1265 µM): 0.555
relative viability (NCI-H727; first compound 0.4 µM): 0.398
relative viability (NCI-H727; first compound 1.265 µM): 0.295
relative viability (NCI-H727; first compound 4 µM): 0.426
relative viability (RERF-LC-KJ; first compound 0.04 µM): 0.763
relative viability (RERF-LC-KJ; first compound 0.1265 µM): 0.646
relative viability (RERF-LC-KJ; first compound 0.4 µM): 0.72
relative viability (RERF-LC-KJ; first compound 1.265 µM): 0.576
relative viability (RERF-LC-KJ; first compound 4 µM): 0.332
relative viability (SK-LU-1; first compound 0.04 µM): 0.185
relative viability (SK-LU-1; first compound 0.1265 µM): 0.18
relative viability (SK-LU-1; first compound 0.4 µM): 0.182
relative viability (SK-LU-1; first compound 1.265 µM): 0.124
relative viability (SK-LU-1; first compound 4 µM): 0.11
